Assay results taken from patent US7049289B1, “Labelled glutamine and lysine analogues” (Amersham PLC, priority 1998, dated 2006).
Where two headings read alike, the source gives them in different places. One block for each compound: values may come before it. Where a SMILES comes first, the peptide text is derived from it. The star is where a group is joined. X1 = CC(=NO)C(C)(C)NCC(C)(CNC(C)(C)C(C)=NO)CN*; Cbz = O=C(OCc1ccccc1)*

What was measured:
[1] = In vitro plasma stability (human plasma)
Protocol: (§1) To a portion of compound (50 μl, 10 MBq/ml) was added an equal volume of plasma (rat or human) or saline. The mixtures were incubated at 37° C. and the stability measured by HPLC (system C) at 0, 30 and 120 minutes. The saline dilution acted as a control.

[2] = Incorporation into clots induced in a rat model (rat inferior vena cava model); assay type: in vivo, rat (Male Wistar); settings: for % id/g (clot) / Rel. Conc. (cpm/g of clot by dose/g animal): sacrificed after 60 min
How it was run: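 Male Wistar rats (250–350 g) under 15% urethane anaesthesia, with the vena cava isolated by laparotomy. Compounds given 5 min (fresh clot) or 60 min (aged clot) after clot induction; clot, blood, lung and heart removed 60 min later, weighed and counted. Uptake expressed as cpm/g clot per dose/g animal and as clot-to-background tissue ratio.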

[3] = In vitro plasma stability (rat plasma)
Protocol: as §1

[4] = molecular target: T1, fibrin (in vitro human plasma clot) (Homo sapiens, UniProt P02671+P02675+P02679); assay: Incorporation into human plasma clots in vitro; assay type: biochemical; settings: for % specific uptake: % retained (with thrombin) - % retained (no thrombin); for % retained (no thrombin): control without thrombin and calcium chloride (non-specific binding); for % retained (with thrombin): human plasma clot, 60 minutes, ca. 20° C.
T1 construct: about 400 μl of human plasma containing the radiolabelled substrate; from tissue; host or cells: human plasma, clotted in vitro with added thrombin and calcium chloride
T1 sequence (P02671 20-644 isoform P02671-2 limits assumed): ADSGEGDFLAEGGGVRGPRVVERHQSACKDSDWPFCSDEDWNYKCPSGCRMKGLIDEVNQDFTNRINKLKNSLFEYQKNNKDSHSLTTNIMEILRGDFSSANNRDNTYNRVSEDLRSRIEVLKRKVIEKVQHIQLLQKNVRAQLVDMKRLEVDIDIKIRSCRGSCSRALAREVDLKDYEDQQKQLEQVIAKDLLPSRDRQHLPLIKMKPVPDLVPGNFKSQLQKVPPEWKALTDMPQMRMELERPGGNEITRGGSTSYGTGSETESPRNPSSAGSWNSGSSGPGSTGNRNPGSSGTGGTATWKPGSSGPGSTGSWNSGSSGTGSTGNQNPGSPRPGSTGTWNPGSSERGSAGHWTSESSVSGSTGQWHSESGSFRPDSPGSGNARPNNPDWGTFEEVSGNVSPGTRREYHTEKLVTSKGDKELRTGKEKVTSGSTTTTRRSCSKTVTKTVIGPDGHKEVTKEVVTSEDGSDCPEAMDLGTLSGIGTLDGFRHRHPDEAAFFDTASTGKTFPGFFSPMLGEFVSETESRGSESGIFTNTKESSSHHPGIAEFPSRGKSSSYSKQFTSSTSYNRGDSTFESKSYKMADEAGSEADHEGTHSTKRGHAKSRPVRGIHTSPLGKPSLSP
T1 sequence (P02675 45-491 limits assumed): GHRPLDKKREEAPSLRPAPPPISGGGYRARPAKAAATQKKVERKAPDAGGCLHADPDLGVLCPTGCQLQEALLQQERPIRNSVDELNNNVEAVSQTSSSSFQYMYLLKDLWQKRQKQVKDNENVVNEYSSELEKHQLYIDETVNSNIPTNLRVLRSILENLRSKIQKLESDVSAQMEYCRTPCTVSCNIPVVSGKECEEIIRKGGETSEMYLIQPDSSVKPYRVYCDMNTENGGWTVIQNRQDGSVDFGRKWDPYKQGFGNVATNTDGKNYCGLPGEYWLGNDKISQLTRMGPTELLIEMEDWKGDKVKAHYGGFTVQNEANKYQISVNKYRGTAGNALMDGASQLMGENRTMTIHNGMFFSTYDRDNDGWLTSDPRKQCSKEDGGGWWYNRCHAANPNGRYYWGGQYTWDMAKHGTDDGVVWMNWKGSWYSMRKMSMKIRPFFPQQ
T1 sequence (P02679 27-437 isoform P02679-2 limits assumed): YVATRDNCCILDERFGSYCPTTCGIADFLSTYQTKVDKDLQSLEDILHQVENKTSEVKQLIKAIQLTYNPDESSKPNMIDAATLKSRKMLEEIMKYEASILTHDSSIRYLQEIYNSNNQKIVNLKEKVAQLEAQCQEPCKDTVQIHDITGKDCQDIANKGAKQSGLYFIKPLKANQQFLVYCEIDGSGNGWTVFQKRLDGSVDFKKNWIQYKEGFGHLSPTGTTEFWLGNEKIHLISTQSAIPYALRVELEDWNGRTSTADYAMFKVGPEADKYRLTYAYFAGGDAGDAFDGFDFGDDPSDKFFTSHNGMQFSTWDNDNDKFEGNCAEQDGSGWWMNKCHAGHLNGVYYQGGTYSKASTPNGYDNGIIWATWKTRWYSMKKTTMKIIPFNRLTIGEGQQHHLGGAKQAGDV
How it was run: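 Human plasma containing radiolabelled substrate (typically 10 kBq/ml) clotted with thrombin in Tris-saline pH 7.5 with 4 mM CaCl2, 60 min at ca. 20 °C, then stopped with cold EDTA. Clots collected on nitrocellulose filters and washed; incorporation is filter-retained radioactivity fraction minus non-specific binding from thrombin/calcium-free controls.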

[5] = ^125I radiolabelled; cited from earlier work
[6] = rat, plasma, 2 h
Protocol: as §1

[7] = Imaging of clots induced in a rat model (jugular vein); assay type: in vivo, rat (male Wistar); settings: planar gamma camera images 15–180 min p.i.
Protocol: Clots were induced in male Wistar rats (250–350 g) as described in Example 17, with the exception that for these experiments the platinum wire was located in the jugular vein. The compounds were injected 60 min […] and planar images acquired between 15–180 min p.i. A Park medical Isocam I gamma camera was used for these experiments, 300K or 150K counts were of the thorax were collected using a LEUHR or a LEPH collimator. Clots were visualised from 15 min p.i.

[8] = human, plasma, 2 h
Protocol: as §1

[9] = set-up: species or system rat (Male Wistar); settings: rat, in vivo; for % ID Blood / % ID GI Tract / % ID Heart / % ID Kidney / % ID Liver / % ID Lung / % ID Muscle / % ID Urine: iv
Protocol: The resolution of a clot image is dependant on the combination of rate of incorporation of the radiopharmaceutical and its blood/tissues clearance rate. For this reason the biodistribution of several compounds has been determined in rats. Male Wistar (100–150 g) rats were injected i.v. with 0.1–0.2 ml of radiolabelled tracer solution (8 MBq/ml) and dissected at different times post-injection. The % ID in each of the selected tissues was measured. Some animals were kept in metabolism cages to be able to determine the % ID excreted in urine and faeces. The dissection times used for the agent were 15, 30, 60, 240 min. Data are shown as mean of % ID (n=3).

[10] = Aged Clots: injected 60 min post-induction
[11] = Fresh Clots: injected 5 min post-induction

remaining at 2 h [1]: > 90%
remaining at 2 h [3]: > 90%
% specific uptake [4]: 40.6%
% retained (no thrombin) [4]: 0.7%
% retained (with thrombin) [4]: 41.3%
Compound: CC(=NO)C(C)(C)NCC(C)(CNC(=O)CNC(=O)[C@H](CCCCN)NC(=O)[C@H](CC(C)C)NC(=O)[C@H](CC(C)C)NC(=O)[C@@H](NC(=O)[C@H](Cc1ccc(O)cc1)NC(=O)[C@@H]1CCCN1C(=O)[C@H](CO)NC(=O)[C@@H](NC(=O)[C@H](CCC(N)=O)NC(=O)[C@H](CCC(=O)O)NC(=O)[C@H](CCC(N)=O)NC(=O)[C@H](CC(N)=O)NC(=O)OCc1ccccc1)C(C)C)[C@@H](C)O)CNC(C)(C)C(C)=NO (some centres unmarked) [^99mTc-Cmpd 7, metal not drawn] (Cbz-NQEQVSPYTLLKG-X1; C-terminus assumed)
Clot/blood ([2]; Aged Clots): 9
Clot/heart ([2]; Aged Clots): 15
Clot/liver ([2]; Aged Clots): 3
Clot/lung ([2]; Aged Clots): 7
% id/g (clot) [2, 10]: 2.1 ± 0.3 % id/g
Rel. Conc. (cpm/g of clot by dose/g animal) [2, 10]: 6.5 ± 1.3
Clot/blood ([2]; Fresh Clots): 15
Clot/heart ([2]; Fresh Clots): 21
Clot/liver ([2]; Fresh Clots): 6
Clot/lung ([2]; Fresh Clots): 11
% id/g (clot) [2, 11]: 4.8 ± 1.3 % id/g
Rel. Conc. (cpm/g of clot by dose/g animal) [2, 11]: 14.5 ± 4.4

Compound: NQEQVSPYTLTLLK [synthetic analogue of the alpha-2 antiplasmin N-terminal peptide, WO 89/00051]
uptake in thrombin clots in vitro (in words) [5]: taken up in thrombin clots in vitro

% specific uptake [4]: 35.3%
% retained (no thrombin) [4]: 0.2%
% retained (with thrombin) [4]: 35.5%
Compound: Ac-NQEQVSPYTLLKG-Pn216 (also: 99mTc complex) [^99mTc-Cmpd 5]
% intact at 120 mins [6]: >90%
Clot/blood ([2]; Aged Clots): 13
Clot/heart ([2]; Aged Clots): 33
Clot/liver ([2]; Aged Clots): 24
Clot/lung ([2]; Aged Clots): 31
% id/g (clot) [2, 10]: 3.6 ± 1.7 % id/g
Rel. Conc. (cpm/g of clot by dose/g animal) [2, 10]: 11 ± 5.1
Clot/blood ([2]; Fresh Clots): 21
Clot/heart ([2]; Fresh Clots): 51
Clot/liver ([2]; Fresh Clots): 43
Clot/lung ([2]; Fresh Clots): 23
% id/g (clot) [2, 11]: 6.0 ± 2.1 % id/g
Rel. Conc. (cpm/g of clot by dose/g animal) [2, 11]: 16 ± 5.8
suitability for imaging clots (in words) [7]: suitable for imaging clots
% intact at 120 mins [8]: >90%

% specific uptake [4]: 39.0%
% retained (no thrombin) [4]: 0.3%
% retained (with thrombin) [4]: 39.3%
Compound: Ac-NQEQVSPYTLLKG-Pn44 (also: 99mTc complex) [^99mTc-Cmpd 3]
% intact at 120 mins [6]: >90%
Clot/blood ([2]; Aged Clots): 8
Clot/heart ([2]; Aged Clots): 23
Clot/liver ([2]; Aged Clots): 5
Clot/lung ([2]; Aged Clots): 11
% id/g (clot) [2, 10]: 2.1 ± 0.8 % id/g
Rel. Conc. (cpm/g of clot by dose/g animal) [2, 10]: 6.2 ± 2.2
Clot/blood ([2]; Fresh Clots): 10
Clot/heart ([2]; Fresh Clots): 17
Clot/liver ([2]; Fresh Clots): 6
Clot/lung ([2]; Fresh Clots): 8
% id/g (clot) [2, 11]: 1.4 ± 0.4 % id/g
Rel. Conc. (cpm/g of clot by dose/g animal) [2, 11]: 5.1 ± 1.2
% intact at 120 mins [8]: >90%
t1/2 (blood clearance, biological half life) [9]: 2 h
% ID Blood ([9]; 0.25 h): 5.3 % ID
% ID GI Tract ([9]; 0.25 h): 13.5 % ID
% ID Heart ([9]; 0.25 h): 0.2 % ID
% ID Kidney ([9]; 0.25 h): 7.6 % ID
% ID Liver ([9]; 0.25 h): 6.2 % ID
% ID Lung ([9]; 0.25 h): 0.7 % ID
% ID Muscle ([9]; 0.25 h): 14.7 % ID
% ID Urine ([9]; 0.25 h): 14.9 % ID
% ID Blood ([9]; 0.5 h): 1.8 % ID
% ID GI Tract ([9]; 0.5 h): 15.1 % ID
% ID Heart ([9]; 0.5 h): 0.1 % ID
% ID Kidney ([9]; 0.5 h): 4.9 % ID
% ID Liver ([9]; 0.5 h): 4.1 % ID
% ID Lung ([9]; 0.5 h): 0.4 % ID
% ID Muscle ([9]; 0.5 h): 10.4 % ID
% ID Urine ([9]; 0.5 h): 34.3 % ID
% ID Blood ([9]; 1 h): 1.6 % ID
% ID GI Tract ([9]; 1 h): 18.0 % ID
% ID Heart ([9]; 1 h): 0.1 % ID
% ID Kidney ([9]; 1 h): 4.6 % ID
% ID Liver ([9]; 1 h): 4.0 % ID
% ID Lung ([9]; 1 h): 0.3 % ID
% ID Muscle ([9]; 1 h): 5.1 % ID
% ID Urine ([9]; 1 h): 37.0 % ID
% ID Blood ([9]; 4 h): 0.6 % ID
% ID GI Tract ([9]; 4 h): 20.7 % ID
% ID Heart ([9]; 4 h): 0.04 % ID
% ID Kidney ([9]; 4 h): 3.4 % ID
% ID Liver ([9]; 4 h): 3.0 % ID
% ID Lung ([9]; 4 h): 0.3 % ID
% ID Muscle ([9]; 4 h): 2.9 % ID
% ID Urine ([9]; 4 h): 42.0 % ID
